pIC50: −log10 of the molar value. Calls of active or inactive are those of the source. The rule behind the calls is not given here.

In general, pIC50 refers to the negative decadic logarithm of the IC50, by convention in mol/L. Higher therefore signals a small IC50. Usually inhibition stands for how much of the control response was suppressed.

For series [1], the target named is T1, Amine oxidase [copper-containing] 3 (Bos taurus, UniProt Q9TTK6).
T1 sequence (Q9TTK6 whole entry): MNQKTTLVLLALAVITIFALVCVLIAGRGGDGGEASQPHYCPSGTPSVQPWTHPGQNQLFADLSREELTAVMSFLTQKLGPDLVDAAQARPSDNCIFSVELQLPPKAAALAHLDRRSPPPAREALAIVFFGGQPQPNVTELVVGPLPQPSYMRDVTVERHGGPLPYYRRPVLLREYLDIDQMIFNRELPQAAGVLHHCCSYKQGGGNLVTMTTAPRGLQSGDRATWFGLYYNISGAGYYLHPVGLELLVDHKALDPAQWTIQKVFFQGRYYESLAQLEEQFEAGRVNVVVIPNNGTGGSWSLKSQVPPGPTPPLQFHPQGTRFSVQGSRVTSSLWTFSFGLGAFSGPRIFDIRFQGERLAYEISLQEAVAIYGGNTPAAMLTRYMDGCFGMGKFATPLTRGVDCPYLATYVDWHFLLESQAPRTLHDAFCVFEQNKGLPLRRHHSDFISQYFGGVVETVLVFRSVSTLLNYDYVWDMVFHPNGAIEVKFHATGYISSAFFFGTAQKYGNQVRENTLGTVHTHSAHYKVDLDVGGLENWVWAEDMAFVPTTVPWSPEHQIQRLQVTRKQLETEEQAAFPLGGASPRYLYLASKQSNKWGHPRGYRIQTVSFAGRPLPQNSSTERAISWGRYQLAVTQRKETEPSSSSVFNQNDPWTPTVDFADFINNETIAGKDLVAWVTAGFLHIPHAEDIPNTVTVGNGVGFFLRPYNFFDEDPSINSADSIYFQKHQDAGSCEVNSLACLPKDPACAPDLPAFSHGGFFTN
Description: Inhibition of bovine plasma VAP-1 using 6-(5-Pheny1-2H-tetrazol-2-yl)hexan-1-amine as substrate preincubated with enzyme for 15 mins followed by substrate addition measured after 30 mins by UV-HPLC analysis. In kind it is cell-free.

For series [2], the target named is T1, Amine oxidase [copper-containing] 3. The series is described as follows: Inhibition of bovine plasma VAP-1 using 6-(5-Pheny1-2H-tetrazol-2-yl)hexan-1-amine as substrate measured after 30 mins by UV-HPLC analysis. The format is cell-free.
The target of series [3] is T2, Amine oxidase [copper-containing] 3 (Bos taurus) (UniProt Q9TTK6).
T2 sequence (whole entry): T1 sequence (Q9TTK6 whole entry)
The series is described as follows: Inhibition of bovine plasma VAP-1 using 6-(5-Pheny1-2H-tetrazol-2-yl)hexan-1-amine as substrate at 10 uM preincubated with enzyme for 15 mins followed by substrate addition measured after 30 mins by UV-HPLC analysis relative to control. In kind it is cell-free. The conditions noted are these: time 45.0 min.

In series [4] the target is T2, Amine oxidase [copper-containing] 3 (Bos taurus). Description: Inhibition of bovine plasma VAP-1 using 6-(5-Pheny1-2H-tetrazol-2-yl)hexan-1-amine as substrate at 10 uM measured after 30 mins by UV-HPLC analysis relative to control. In kind it is cell-free.
Series [5] in a line: Selectivity index, ratio of IC50 for human plasma VAP-1 to IC50 for bovine plasma VAP-1.
Series [6] addresses T3, VAP-1 (amine oxidase [copper-containing] 3) (Bos taurus, UniProt Q9TTK6).
T3 sequence (Q9TTK6 whole entry): T1 sequence (Q9TTK6 whole entry)
Description: Stability of compound assessed as bovine plasma VAP-1 mediated drug degradation by measuring parent compound remaining at 10 uM incubated for 120 mins by HPLC-MS analysis. In kind it is ADME, cell-free. The conditions noted are these: cattle, bovine plasma VAP-1 (amine oxidase [copper-containing] 3), read-out: Stability.

Series [7] has as its target T3, VAP-1 (amine oxidase [copper-containing] 3). The series is described as follows: Stability of compound assessed as bovine plasma VAP-1 mediated drug degradation by measuring parent compound remaining at 10 uM incubated for 60 mins by HPLC-MS analysis. The format is ADME, cell-free. The conditions noted are these: cattle, bovine plasma VAP-1 (amine oxidase [copper-containing] 3), read-out: Stability.

The target of series [8] is T4, Amine oxidase [copper-containing] 3 (Homo sapiens, UniProt Q16853).
T4 sequence (Q16853 whole entry): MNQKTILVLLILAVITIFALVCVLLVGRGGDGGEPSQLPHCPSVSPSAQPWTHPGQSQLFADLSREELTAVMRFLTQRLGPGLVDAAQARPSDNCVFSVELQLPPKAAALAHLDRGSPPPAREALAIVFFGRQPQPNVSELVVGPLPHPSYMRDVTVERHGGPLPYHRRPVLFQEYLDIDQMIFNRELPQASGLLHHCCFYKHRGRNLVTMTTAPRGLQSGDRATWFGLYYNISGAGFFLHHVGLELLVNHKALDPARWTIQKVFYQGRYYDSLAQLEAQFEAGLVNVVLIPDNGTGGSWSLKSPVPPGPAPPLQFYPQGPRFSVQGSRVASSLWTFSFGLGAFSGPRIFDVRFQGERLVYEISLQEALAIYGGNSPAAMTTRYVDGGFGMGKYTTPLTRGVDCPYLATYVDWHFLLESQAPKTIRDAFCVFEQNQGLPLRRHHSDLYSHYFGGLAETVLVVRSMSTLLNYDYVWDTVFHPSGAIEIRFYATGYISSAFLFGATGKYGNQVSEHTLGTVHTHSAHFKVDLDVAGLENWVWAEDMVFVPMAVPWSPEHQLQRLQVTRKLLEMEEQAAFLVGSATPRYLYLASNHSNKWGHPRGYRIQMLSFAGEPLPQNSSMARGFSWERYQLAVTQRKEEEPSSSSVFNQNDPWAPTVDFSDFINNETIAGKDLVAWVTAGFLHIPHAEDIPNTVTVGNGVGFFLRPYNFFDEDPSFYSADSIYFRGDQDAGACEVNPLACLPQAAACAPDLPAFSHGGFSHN
Description: Inhibition of human plasma VAP-1 using 6-(5-Pheny1-2H-tetrazol-2-yl)hexan-1-amine as substrate preincubated with enzyme for 15 mins followed by substrate addition measured after 120 mins by UV-HPLC analysis. The format is cell-free.

The target in series [9] is T3, VAP-1 (amine oxidase [copper-containing] 3). Description: Stability of compound assessed as bovine plasma VAP-1 mediated drug degradation by measuring parent compound remaining at 10 uM incubated for 30 mins by HPLC-MS analysis. In kind it is ADME, cell-free. The conditions noted are these: cattle, bovine plasma VAP-1 (amine oxidase [copper-containing] 3), read-out: Stability.

Series [10] has the same target. The series is described as follows: Stability of compound assessed as bovine plasma VAP-1 mediated drug degradation by measuring parent compound remaining at 10 uM incubated for 15 mins by HPLC-MS analysis. The format is ADME, cell-free. The conditions noted are these: cattle, bovine plasma VAP-1 (amine oxidase [copper-containing] 3), read-out: Stability.
For series [11], the target named is T1, Amine oxidase [copper-containing] 3. Description: Stability of compound assessed as bovine plasma VAP-1 mediated drug degradation by measuring formation of aldehyde metabolite at 1 to 10 uM incubated for 60 to 120 mins by HPLC-MS analysis. The settings on record: cattle, dose lower 1 µM, time lower 60 min, dose upper 10 µM, time upper 120 min. In kind it is ADME, cell-free.

Take `Cc1ccc(-c2nnn(CCCCCCNC(=O)CN)n2)cc1`: the pIC50 in series [1] is 5.29; in [2], 5.33.
Consider `NCC(=O)NCCCCCCn1nnc(-c2cccnc2)n1`, for which the inhibition in series [3] turned out to be 45%; in [4], 44%. For the same compound, the pIC50 in [1] and in series [2] was under 5.00 throughout.
For the compound `NCC(=O)NCCCCCCn1ccc(-c2ccccc2)n1`, the results for the inhibition in series [3] and in series [4] were 37% and 42%, respectively. Also, the pIC50 in [1] and in [2] was under 5.00 each time.
For `NCC(=O)Nc1ccc(CCn2nnc(-c3ccccc3)n2)cc1`, the inhibition was 18% in series [3] and 20% in series [4]. Besides, the pIC50 in series [1] and in series [2] was under 5.00 throughout.
On to `CN(Cc1cccc(Cn2nnc(-c3ccccc3)n2)c1)C(=O)CN`, for which the inhibition in [3] stood at 49%; in series [4] it was 43%. For the same compound, in [5], the Ratio IC50 came to 2. The pIC50 in [1] is under 5.00; in [2], under 5.00; in [8], 4.70. The remaining at 2 h, 10 µM in series [6] was found to be 45%. The remaining at 1 h, 10 µM in series [7] came out at 65%. For the same compound, in series [9], the remaining at 0.5 h, 10 µM is 85%. In series [10], the remaining at 0.25 h, 10 µM was determined as 95%.
With `NCC(=O)NCc1ccccc1Cn1nnc(-c2ccccc2)n1`, the values for the inhibition in [3] and in series [4] were 18% and 30%, respectively. The negative-log IC50 (pIC50) in series [1] and in [2] was under 5.00 throughout. Further, in series [6], the remaining at 2 h, 10 µM came out at 56%. In addition, the remaining at 1 h, 10 µM in series [7] amounted to 84%. In [9], the remaining at 0.5 h, 10 µM was 86%. Further, in [10], the remaining at 0.25 h, 10 µM was found to be 91%.
As to `CS(=O)(=O)c1ccc(-c2nnn(CCCCCCNC(=O)CN)n2)cc1`, the Ratio IC50 in series [5] came to 2. For the same compound, the values for the pIC50 in [1], in series [2] and in [8] were 5.35, 5.64 and 4.54, respectively. The remaining at 2 h, 10 µM in series [6] is under 5%. Also, the remaining at 1 h, 10 µM in [7] was 23%. Also, the remaining at 0.5 h, 10 µM in [9] is 63%. Also, in series [10], the remaining at 0.25 h, 10 µM came out at 82%. Moreover, the Stability entry in [11] is listed as “Unstable”.
Compound `NCC(=O)NCCCCCn1nnc(-c2ccccc2)n1` displayed an inhibition in series [3] of 45%. Further, the pIC50 in [1] was under 5.00; in [2], 5.03.
Regarding `NCC(=O)NCCCCCCCCn1nnc(-c2ccccc2)n1`, the pIC50 is 5.32 in [1] and 5.51 in [2].
For `NCC(=O)NCCCCCCn1nnc(-c2ccc(C(=O)O)cc2)n1`, the inhibition entry in [3] and in series [4] was “inactive” in each case.
As to `NCC(=O)NCCCCn1nnc(-c2ccccc2)n1`, the inhibition amounted to 29% in series [3] and 14% in series [4]. The pIC50 in series [1] and in [2] was under 5.00 throughout.
On to `NCC(=O)NCCCCCCn1nnc(-c2ccc(C(N)=O)cc2)n1`, for which the pIC50 was 5.28 in series [1] and 5.40 in series [2].
With `COc1ccc(-c2nnn(CCCCCCNC(=O)CN)n2)cc1`, the figures for the pIC50 in series [1] and in series [2] were 5.20 and 5.21, respectively.
For `NCC(=O)NCCCCCCn1nnc(-c2ccncc2)n1`, in that order: 5.27 and 5.21.
Take `NCC(=O)NCCCCCCn1nnc(-c2ccccn2)n1`: the inhibition in series [3] was found to be 49%; in series [4], 40%. Also, the pIC50 in [1] and in [2] was under 5.00 each time.
In series [3], `NCC(=O)NCCn1nnc(-c2ccccc2)n1` registered an inhibition of 31%. Besides, the inhibition result in series [4] was “inactive”. The same compound gave a pIC50 in [1] of under 5.00.
Take `NCC(=O)N1CCC(CCCn2nnc(-c3ccccc3)n2)CC1`: the inhibition in series [3] stood at 18%; in series [4], 19%. In addition, the pIC50 in [1] and in [2] was under 5.00 in each case.
Turning to `NCC(=O)NCCCCCCn1nnc(-c2cccs2)n1`, the values for the pIC50 in [1] and in series [2] were 5.11 and 5.25, respectively.
On to `NCC(=O)NCCCn1nnc(-c2ccccc2)n1`, for which the values for the inhibition in series [3] and in series [4] were 29% and 13%, respectively. Moreover, the pIC50 in series [1] and in [2] was under 5.00 each time.
As for `NCC(=O)NCCCCCCn1nnc(-c2ccsc2)n1`, the pIC50 in series [1] was 5.17; in [2] it was 5.20.
For `NCC(=O)NCCCCCCn1nnc(-c2ccc(N3CCOCC3)cc2)n1`, in that order: 5.25 and 5.12.
In the same order, the values of `NCC(=O)NCCCCCCn1ncc(-c2ccccc2)n1` are 5.15 and 5.21.
Turning to `NCCCCCCn1nnc(-c2ccccc2)n1`, in [6], the remaining at 2 h, 10 µM is under 5%. Besides, the remaining at 1 h, 10 µM in series [7] is under 5%. Moreover, the remaining at 0.5 h, 10 µM in series [9] is under 5%. In addition, the remaining at 0.25 h, 10 µM in [10] was under 5%.
For `NCC(=O)NCCCCCCn1nnc(-c2ccc(Cl)cc2)n1`, the pIC50 in series [1] was 5.37; in series [2], 5.46.
In the same order, the values of `NCC(=O)NCCCCCCCn1nnc(-c2ccccc2)n1` are 5.18 and 5.24.
As for `NCC(=O)NCc1ccc(Cn2nnc(-c3ccccc3)n2)cc1`, the pIC50 in series [1] is 5.23; in series [2], 5.04. In series [6], the remaining at 2 h, 10 µM is 45%. Moreover, in series [7], the remaining at 1 h, 10 µM stood at 69%. Besides, the remaining at 0.5 h, 10 µM in [9] was 82%. The remaining at 0.25 h, 10 µM in series [10] turned out to be 89%.
As for `NCC(=O)NCCCCCCn1cc(-c2ccccc2)cn1`, the pIC50 is 5.10 in series [1] and 5.16 in [2].
In the same order, the values of `COC(=O)c1ccc(-c2nnn(CCCCCCNC(=O)CN)n2)cc1` are 5.21 and 5.14.
`NCC(=O)NC1CCC(CCn2nnc(-c3ccccc3)n2)CC1` (stereo not given): the inhibition entry in series [3] and in series [4] was “inactive” in each case.
As to `NCC(=O)NCCCCCCn1cnc(-c2ccccc2)c1`, the figures for the inhibition in series [3] and in [4] were 33% and 41%, respectively. The pIC50 in [1] and in [2] was under 5.00 throughout.

Source of the values: ChEMBL document CHEMBL5523671, “ω-(5-Phenyl-2H-tetrazol-2-yl)alkyl-substituted glycine amides and related compounds as inhibitors of the amine oxidase vascular adhesion protein-1 (VAP-1)” (Bioorg Med Chem, 2024).
